# Tests used:
# [1] = system: K562 human chronic myeloid leukaemia cells; test: K562 assay (MTT cytotoxicity); type: cell-based; details: 96 h, 4 days incubation, n=2
# Procedure: An initial stock of compound (in 0.006% DMSO) was used to generate a 1:3 dilution series ranging from 600 nM to 30 pM be the sequential addition of 40 μL compound to 80 μL of solvent (0.006% DMSO in sterile H2O). 10 μL of each point of the dilution range was transferred to a 96 well assay plate (Nunc, Cat. No. 163320) to generate four replica points per compound concentration. K562 human chronic myeloid leukaemia cells were maintained in RPM1 1640 medium supplemented with 10% foetal calf serum and 2 mM glutamine at 37° C. in a humidified atmosphere containing 5% CO2. 190 μL of a 5×10^4 cell solution was added to each well of the assay plate using a Matrix Wellmate (Apogent Discoveries), resulting in a total of 9.5×10^3 cells/well. Working compound concentrations therefore ranged from 30 nM to 1.5 pM. Plates were then kept in the dark at 37° C. in a humidified atmosphere containing 5% CO2. The assay is based on the ability of viable cells to reduce a yellow soluble tetrazolium salt, 3-(4,5-dimethylthiazol-2-yl)-2,5-diphenyl-2H-tetrazolium bromide (MTT, Aldrich-Sigma), to an insoluble purple formazan precipitate. […] The optical density was then read at a wavelength of 540 nm on a Fusion plate reader (Perkin Elmer). […]
# [2] = Stability in d6-DMSO, d4-MeOH and D2O by 1H NMR (Study 4); type: physicochemical
# Procedure: Samples of SJG-720 (˜3 mg) were dissolved in d6-DMSO, D2O and d4-MeOH (Cambridge Isotopes) and transferred to separate NMR tubes (Wilmad, 5 mm). ^1H NMR spectra were obtained on a Bruker Avance 400 MHz NMR spectrophotometer (typically 64 scans). ^13C and DEPT (Distortionless Enhancement through Polarized Transfer) experiments were performed on these samples using the same instrument at the appropriate field strength (100 MHz).
# NMR spectra were recorded, as described above, after the following time intervals: • d6-DMSO, 1 hr, 8 days. • D2O, 3 hrs, 8 days. • d4-MeOH, 10 minutes, 3 days. Additional Studies
# NMR experiments were carried out on SJG-136 in its carbinolamine forms. […] However, strong signals corresponding to the kinetic and thermodynamic carbinolamine forms can be observed when the sample is analysed in d6-DMSO. These gradually disappear from the spectra over a period of about 24 hours when the imine form becomes the predominant species.
# Samples of the bisulphite adduct SJG-720 dissolved in d6-DMSO and D2O were stored at room temperature for over a period of 7 days and then analysed by ^1H NMR spectroscopy. […] In addition, a sample of SJG-720 stored at room temperature in d4-MeOH for over 3 days was also analysed by ^1H NMR.
Structure (SMILES),IC50 [1] [nM],Interconversion of carbinolamine forms to imine ([2]; CDCl3 or CD3CN),Period over which carbinolamine form signals disappear and the imine form becomes predominant ([2]; carbinolamine forms in d6-DMSO),"Stability in D2O (1H NMR spectrum change) ([2]; D2O, room temperature, over 7 days)","Stability in d4-MeOH (interconversion to carbinolamine methyl ether) ([2]; d4-MeOH, room temperature, over 3 days)","Stability in d6-DMSO (reversion to parent imine) ([2]; d6-DMSO, room temperature, over 7 days)"
C=C1C[C@H]2C=Nc3cc(OCCCOc4cc5c(cc4OC)C(=O)N4CC(=C)C[C@H]4C=N5)c(OC)cc3C(=O)N2C1 [SJG-136],< 10,revert to the imine form immediately,about 24 hours,,,
"C=C1C[C@H]2C(S(=O)(=O)[O-])Nc3cc(OCCCOc4cc5c(cc4OC)C(=O)N4CC(=C)C[C@H]4C(S(=O)(=O)[O-])N5)c(OC)cc3C(=O)N2C1.[Na+].[Na+] (stereo partly drawn) [SJG-720, 1,1′[[(Propane-1,3-diyl)dioxy]bis(11aS)-11-sulpho-7-methoxy-2-methylidene-1,2,3,10,11,11a-hexahydro-5H-pyrrolo[2,1-c][1,4-benzodiazepin-5-one]] sodium salt]",,,,no appreciable hydrolysis had occurred,interconversion to the carbinolamine methyl ether from was not observed,complete absence of parent imine SJG-136 signals

# From patent publication US7244724B2, “Pyrrolobenzodiazepines” (United States of America, Represented by the Secretary, …, priority 2003, dated 2007)
